Key:
[1] = biological target: T1, NF-YA (Homo sapiens, UniProt P23511); test: RNA immunoprecipitation of NF-YA; assay type: binding; conditions: doxorubicin-treated primary human lung fibroblasts, qRT-PCR
T1 construct: RNA chromatography of PANDA from doxorubicin-treated FL3 cell lysates; endogenous in cells; host or cells: doxorubicin-treated human fetal lung fibroblasts (FL3)
Experimental: Ten million cells were treated with 200 ng/ml doxorubicin for 16 hours, trypsinized and crosslinked with 1% formaldehyde for 10 minutes, followed by the addition of 0.125 M glycine for 5 minutes. After two PBS washes, cells were lysed with 2× volume of Buffer A (10 mM HEPES pH 7.5, 1.5 mM MgCl2, 10 mM KCl, 0.5 mM DTT, 1 mM PMSF) for 15 minutes on ice at 150 r.p.m. NP-40 was added to a final concentration of 0.25% for 5 minutes on ice. Lysates were centrifuged for 3 minutes at 2,000 r.p.m., and the supernatant (cytosol) was collected. Next, an equal volume of Buffer C as that used of Buffer A was added to the pellet for 20 minutes with frequent vortex (20 mM HEPES pH 7.5, 10% glycerol, 0.42 M KCl, 4 mM MgCl2, 0.5 mM DTT, and 1 mM PMSF). Nuclear lysates were dounced for 5 seconds using a motorized pestle and sonicated for 7 minutes using a Diagenode Sonicator (30 seconds on, 30 seconds off, power setting H). Nuclear and cytoplasmic lysates were combined and centrifuged for 15 minutes at 13,000 r.p.m. Supernatants were transferred into micro spin columns (Pierce 89879), and 2 μg of antibody was added and incubated overnight. We washed 10 μl of Protein A/G UltraLink Resin (Pierce 53132) three times with RIP wash buffer (50 mM TrisHcl pH 7.9, 10% glycerol, 100 mM KCl, 5 mM MgCl2, 10 mM B-me and 0.1% NP-40) and added it to the immunoprecipitation reaction for 1 hour at 4° C. […]

[2] = biological target: T2, LSD1 (Homo sapiens, UniProt O60341); test: RNAse mediated RNA chromatography; assay type: binding; conditions: lysates of doxorubicin-treated human fibroblasts
T2 construct: RNA chromatography of PANDA from doxorubicin-treated FL3 cell lysates; endogenous in cells; host or cells: doxorubicin-treated human fetal lung fibroblasts (FL3)
Experimental: (§1) RNAse mediated RNA chromatography (Michlewski et al. (2010) RNA 16:1673-1678, herein incorporated by reference in its entirety) was performed as previously described with the following modifications: 6 pmols of RNA (PANDA or a 1.2-kb fragment of LacZ) were used per reaction. RNA was folded (90° C. for 2 minutes, ice for 2 minutes), supplied with RNA structure buffer (Ambion) and shifted to room temperature (22-25° C.) for 20 minutes before conjugation to beads. RNAse digestion was performed with 5 μl of RNase A/T1 cocktail (Ambion) and 2 μl of RNase V1 (Ambion). Cellular lysates were prepared as follows: 10 million doxorubicin treated cells (16 hours) were incubated in 200 μl PBS, 600 μl H20 and 200 μl nuclear lysis buffer (1.28 M sucrose; 40 mM Tris-HCl pH 7.5; 20 mM MgCl2; 4% Triton X-100) on ice for 20 minutes. Nuclei were pelleted by centrifugation at 2,500 g for 15 minutes. The nuclear pellet was resuspended in 1 ml RIP buffer (150 mM KCl, 25 mM Tris pH 7.4, 0.5 mM DTT, 0.5% NP40, 1 mM PMSF and protease inhibitor (Roche Complete Protease Inhibitor Cocktail Tablets)). Resuspended nuclei were sheared using a motorized douncer for 5 seconds. Nuclear membrane and debris were pelleted by centrifugation at 18,000 g for 10 minutes.
(§2) Core promoters of cell death genes downstream of p53 are distinguished from other p53 target genes by the binding site for the transcription factor NF-YA (Morachis et al. (2010) Genes Dev. 24:135-147), and we reasoned that PANDA may affect NF-YA function. […] NF-YA is a nuclear transcription factor that activates the p53-responsive promoter of FAS upon DNA damage (Morachis et al. (2010) Genes Dev. 24:135-147). […] Thus, PANDA binding to NF-YA may evict or prevent NF-YA binding to chromatin. […] CDKN1A mRNA produces p21 to mediate arrest, whereas PANDA impedes NF-YA activation of apoptotic gene expression program (FIG. 8).

[3] = biological target: T3, p21 (Homo sapiens, UniProt P38936); test: RNAse mediated RNA chromatography; assay type: binding; conditions: lysates of doxorubicin-treated human fibroblasts
T3 construct: RNA chromatography of PANDA from doxorubicin-treated FL3 cell lysates; endogenous in cells; host or cells: doxorubicin-treated human fetal lung fibroblasts (FL3)
T3 sequence (P38936 whole entry): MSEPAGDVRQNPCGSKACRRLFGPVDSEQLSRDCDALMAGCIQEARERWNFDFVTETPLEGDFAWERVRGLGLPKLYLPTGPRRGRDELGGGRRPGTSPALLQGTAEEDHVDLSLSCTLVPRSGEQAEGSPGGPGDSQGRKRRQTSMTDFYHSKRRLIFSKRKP
Experimental: as §1, §2

[4] = biological target: T1, NF-YA; test: RNAse mediated RNA chromatography; assay type: binding; conditions: in vitro transcribed RNA; lysates of doxorubicin-treated human fibroblasts
Experimental: as §1, §2

[5] = biological target: T4, EZH2 (Homo sapiens, UniProt Q15910); test: RNAse mediated RNA chromatography; assay type: binding; conditions: lysates of doxorubicin-treated human fibroblasts
T4 construct: RNA chromatography of PANDA from doxorubicin-treated FL3 cell lysates; endogenous in cells; host or cells: doxorubicin-treated human fetal lung fibroblasts (FL3)
T4 sequence (Q15910 whole entry): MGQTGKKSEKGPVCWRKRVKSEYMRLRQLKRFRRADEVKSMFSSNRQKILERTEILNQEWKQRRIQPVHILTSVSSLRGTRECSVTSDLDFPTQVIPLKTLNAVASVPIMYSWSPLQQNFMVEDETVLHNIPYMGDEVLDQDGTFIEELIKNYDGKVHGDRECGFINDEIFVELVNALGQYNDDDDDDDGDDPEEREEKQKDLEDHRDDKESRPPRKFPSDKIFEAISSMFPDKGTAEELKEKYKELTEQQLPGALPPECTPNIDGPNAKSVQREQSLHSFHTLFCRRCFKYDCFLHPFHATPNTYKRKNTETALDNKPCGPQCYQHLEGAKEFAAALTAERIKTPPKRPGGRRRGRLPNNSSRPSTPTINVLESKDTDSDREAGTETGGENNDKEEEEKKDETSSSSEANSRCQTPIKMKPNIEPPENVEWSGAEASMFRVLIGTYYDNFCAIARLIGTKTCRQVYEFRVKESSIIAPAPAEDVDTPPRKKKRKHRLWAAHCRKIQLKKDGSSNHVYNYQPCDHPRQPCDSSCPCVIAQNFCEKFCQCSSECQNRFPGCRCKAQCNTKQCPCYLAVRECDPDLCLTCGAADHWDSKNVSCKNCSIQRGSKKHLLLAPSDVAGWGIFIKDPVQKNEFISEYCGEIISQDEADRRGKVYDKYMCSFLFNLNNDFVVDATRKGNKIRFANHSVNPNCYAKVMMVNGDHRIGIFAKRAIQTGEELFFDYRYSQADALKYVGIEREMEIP
T4 sequence (O75530 whole entry partner): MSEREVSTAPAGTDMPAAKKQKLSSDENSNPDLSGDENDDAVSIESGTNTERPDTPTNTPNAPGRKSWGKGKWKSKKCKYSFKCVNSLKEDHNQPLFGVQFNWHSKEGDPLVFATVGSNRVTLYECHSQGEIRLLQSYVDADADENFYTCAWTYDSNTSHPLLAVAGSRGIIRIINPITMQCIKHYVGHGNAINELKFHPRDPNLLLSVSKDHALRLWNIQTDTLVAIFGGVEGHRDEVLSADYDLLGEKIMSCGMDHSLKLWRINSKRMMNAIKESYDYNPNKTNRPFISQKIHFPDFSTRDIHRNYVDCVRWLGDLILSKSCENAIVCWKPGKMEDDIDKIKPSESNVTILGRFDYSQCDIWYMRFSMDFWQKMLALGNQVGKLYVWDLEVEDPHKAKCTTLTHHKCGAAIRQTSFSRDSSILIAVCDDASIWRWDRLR
T4 sequence (Q15022 whole entry partner): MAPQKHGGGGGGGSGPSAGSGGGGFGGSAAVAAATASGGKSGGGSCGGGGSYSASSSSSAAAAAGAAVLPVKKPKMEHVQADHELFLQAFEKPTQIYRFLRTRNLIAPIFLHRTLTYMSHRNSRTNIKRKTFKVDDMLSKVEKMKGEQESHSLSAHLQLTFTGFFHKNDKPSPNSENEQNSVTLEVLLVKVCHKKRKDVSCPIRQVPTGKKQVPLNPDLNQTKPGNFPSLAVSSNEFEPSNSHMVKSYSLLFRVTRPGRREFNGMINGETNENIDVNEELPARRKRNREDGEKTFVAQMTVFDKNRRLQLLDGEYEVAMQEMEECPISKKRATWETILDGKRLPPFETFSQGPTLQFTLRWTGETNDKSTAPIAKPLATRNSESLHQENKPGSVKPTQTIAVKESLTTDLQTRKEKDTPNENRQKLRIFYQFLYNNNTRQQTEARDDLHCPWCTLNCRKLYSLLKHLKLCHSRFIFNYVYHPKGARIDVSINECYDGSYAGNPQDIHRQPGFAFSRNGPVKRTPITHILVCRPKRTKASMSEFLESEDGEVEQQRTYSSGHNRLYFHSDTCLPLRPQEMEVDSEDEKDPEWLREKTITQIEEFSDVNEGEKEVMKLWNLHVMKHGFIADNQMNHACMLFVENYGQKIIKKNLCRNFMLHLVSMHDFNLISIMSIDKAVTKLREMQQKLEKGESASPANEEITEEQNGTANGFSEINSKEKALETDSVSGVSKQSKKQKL
Experimental: as §1, §2

[6] = system: human fetal lung fibroblasts (FL3); test: Quantitative RT-PCR of lncRNA expression, doxorubicin time course; assay type: cell-based; conditions: 24 hour time course
Experimental: Total RNA was extracted from cells using the TRIzol reagent (Invitrogen) and the RNeasy Mini Kit (Qiagen), and genomic DNA was eliminated using TURBO DNA-free (Ambion). RT-PCR using 50-250 ng of total RNA was performed using the One-Step RT-PCR Master Mix (Applied Biosystems) using TaqMan Gene Expression Assays and normalized to GAPDH. Strand-specific RT-PCR for PANDA was performed using the One-Step RT-PCR Master Mix SYBR Green (Stratagene)).
A panel of TaqMan custom ncRNA assays was developed targeting 60 of the 219 new transcribed regions using the ‘single-exon’ design mode. The transcript specificity and genome specificity of all TaqMan assays were verified using a position-specific alignment matrix to predict potential cross reactivity between designed assays and genome-wide nontarget transcripts or genomic sequences. […]
Our co-expression maps predicted associations of several lncRNAs with DNA damage response pathways (FIG. 3C and FIG. 11). […] In order to confirm whether these lncRNAs may be responsive to DNA damage, we measured the expression changes of 60 lncRNAs predicted in the DNA damage pathway (as well as upst:CDKN1A:−800) by quantitative RT-PCR in human fetal lung fibroblasts treated with doxorubicin over a 24 hour time course. […]

[7] = system: human fetal lung fibroblasts (FL3); test: TUNEL assay; assay type: cell-based; conditions: FL3 cells exposed to control siRNA
Experimental: TUNEL assays were performed using the in situ Cell Death Detection Kit, TMR Red (Roche). Human fetal lung fibroblasts were cultured on chamber slides (Lab-Tek), treated with 200 ng/ml doxorubicin (Sigma) for 24 hours, fixed with methanol at −20° C. for 10 minutes and incubated with the TUNEL labeling mixture for 1 hour at 37° C. Slides were then washed with PBS and mounted in Prolong Gold antifade reagent with DAPI (Invitrogen) and imaged at 20× magnification.

[8] = system: human fetal lung fibroblasts; test: Custom tiling array RNA hybridization (ncRNA expression); assay type: cell-based; conditions: doxorubicin-treated human fetal lung fibroblasts; tiling array and qRT-PCR; of 216 ncRNAs
Text: A custom tiling array (Roche NimbleGen) was designed at 5 bp resolution across 25 kb of the 9p21 region (which encompasses CDKN2A, P14ARF and CDKN2B), as well as from 10 kb upstream to 2 kb downstream of each TSS from 53 other cell-cycle genes, including those encoding cyclins, CDKs and CDKIs (Table 1). In addition, the HOXA and HOXD loci were placed on the array as a control. Briefly, RNA was amplified (MessageAmp Kit, Ambion), reverse transcribed (RETROscript Kit, Ambion), labeled and hybridized according to the standard NimbleGen protocol.
Robust multichip average normalized single channel data from each array were subjected to peak calling using the NimbleScan program (Roche NimbleGen) with a window size of 50. Peaks with a peak score greater than ten were considered significant transcriptional units. […]
A peak calling algorithm searched for statistically significant signals above background and detected contiguous regions (peaks) of at least 50 bp. […] Averaging the signal intensity across all probes in a peak produced a quantitative estimate of transcript abundance. Despite possible 3′ bias caused by polyadenylated RNA selection, our procedure detected exon 1 transcription from the majority of cell-cycle coding genes (41 of the 56), showing that this custom tiling array can detect previously reported transcribed regions. […]

T1 sequence (P23511 whole entry): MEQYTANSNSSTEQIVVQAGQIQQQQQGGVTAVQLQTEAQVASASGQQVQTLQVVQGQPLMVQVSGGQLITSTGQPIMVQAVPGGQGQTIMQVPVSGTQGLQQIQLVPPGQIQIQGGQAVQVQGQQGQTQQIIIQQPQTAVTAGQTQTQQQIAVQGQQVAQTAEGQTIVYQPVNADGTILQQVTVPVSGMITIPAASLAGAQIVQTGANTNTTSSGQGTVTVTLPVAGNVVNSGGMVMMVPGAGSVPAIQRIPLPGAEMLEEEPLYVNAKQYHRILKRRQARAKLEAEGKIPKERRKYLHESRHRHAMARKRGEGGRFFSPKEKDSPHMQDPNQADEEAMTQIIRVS

Compound | retrieval of endogenous PANDA by immunoprecipitation of NF-YA [1] | retrieval of LSD1 [2] | retrieval of p21 [3] | retrieval of NF-YA from cellular lysates [4] | retrieval of EZH2 [5] | expression of lncRNAs surrounding the CDKN1A TSS [6] | induction of Upst:CDKN1A:−4,845 (PANDA) upon DNA damage [6] | apoptosis as measured by TUNEL [7] | ncRNAs with at least two-fold change [8]
PANDA: P21-Associated NcRNA, DNA damage Activated; 1.5-kb long non-coding RNA | specifically retrieved | did not retrieve | did not retrieve | specifically retrieved | did not retrieve | – | – | – | –
COc1cccc2c1C(=O)c1c(O)c3c(c(O)c1C2=O)C[C@@](O)(C(=O)CO)C[C@@H]3O[C@H]1C[C@H](N)[C@H](O)[C@H](C)O1 [doxorubicin] | – | – | – | – | – | all five of the tested lncRNAs surrounding the CDKN1A TSS were induced | up to 40 fold | little to no apoptosis | 12 of the 216

— US9062351B2, “Diagnostic, prognostic and therapeutic uses of long non-coding RNAs for cancer and regenerative medicine” (The Board of Trustees of the Leland Stanford Junior …, priority 2011, dated 2015)
